Measured values published in ChEMBL document CHEMBL1149733, “Antitumor agents, 130, Novel 4 beta-arylamino derivatives of 3',4'-didemethoxy-3',4'-dioxo-4-deoxypodophyllotoxin as potent inhibitors of human DNA topoisomerase II” (1992).

What was measured:
[1] = biological target: DNA topoisomerase 2-alpha (Homo sapiens) (UniProt P11388); experiment: Inhibition of strand rejoining activity of human DNA topoisomerase 2 assessed as protein-DNA complex formation at 20 uM by cell-based assay; set-up: scale not given: the % may be the effect or the level left
Chain of DNA topoisomerase 2-alpha (Homo sapiens) (P11388 whole entry): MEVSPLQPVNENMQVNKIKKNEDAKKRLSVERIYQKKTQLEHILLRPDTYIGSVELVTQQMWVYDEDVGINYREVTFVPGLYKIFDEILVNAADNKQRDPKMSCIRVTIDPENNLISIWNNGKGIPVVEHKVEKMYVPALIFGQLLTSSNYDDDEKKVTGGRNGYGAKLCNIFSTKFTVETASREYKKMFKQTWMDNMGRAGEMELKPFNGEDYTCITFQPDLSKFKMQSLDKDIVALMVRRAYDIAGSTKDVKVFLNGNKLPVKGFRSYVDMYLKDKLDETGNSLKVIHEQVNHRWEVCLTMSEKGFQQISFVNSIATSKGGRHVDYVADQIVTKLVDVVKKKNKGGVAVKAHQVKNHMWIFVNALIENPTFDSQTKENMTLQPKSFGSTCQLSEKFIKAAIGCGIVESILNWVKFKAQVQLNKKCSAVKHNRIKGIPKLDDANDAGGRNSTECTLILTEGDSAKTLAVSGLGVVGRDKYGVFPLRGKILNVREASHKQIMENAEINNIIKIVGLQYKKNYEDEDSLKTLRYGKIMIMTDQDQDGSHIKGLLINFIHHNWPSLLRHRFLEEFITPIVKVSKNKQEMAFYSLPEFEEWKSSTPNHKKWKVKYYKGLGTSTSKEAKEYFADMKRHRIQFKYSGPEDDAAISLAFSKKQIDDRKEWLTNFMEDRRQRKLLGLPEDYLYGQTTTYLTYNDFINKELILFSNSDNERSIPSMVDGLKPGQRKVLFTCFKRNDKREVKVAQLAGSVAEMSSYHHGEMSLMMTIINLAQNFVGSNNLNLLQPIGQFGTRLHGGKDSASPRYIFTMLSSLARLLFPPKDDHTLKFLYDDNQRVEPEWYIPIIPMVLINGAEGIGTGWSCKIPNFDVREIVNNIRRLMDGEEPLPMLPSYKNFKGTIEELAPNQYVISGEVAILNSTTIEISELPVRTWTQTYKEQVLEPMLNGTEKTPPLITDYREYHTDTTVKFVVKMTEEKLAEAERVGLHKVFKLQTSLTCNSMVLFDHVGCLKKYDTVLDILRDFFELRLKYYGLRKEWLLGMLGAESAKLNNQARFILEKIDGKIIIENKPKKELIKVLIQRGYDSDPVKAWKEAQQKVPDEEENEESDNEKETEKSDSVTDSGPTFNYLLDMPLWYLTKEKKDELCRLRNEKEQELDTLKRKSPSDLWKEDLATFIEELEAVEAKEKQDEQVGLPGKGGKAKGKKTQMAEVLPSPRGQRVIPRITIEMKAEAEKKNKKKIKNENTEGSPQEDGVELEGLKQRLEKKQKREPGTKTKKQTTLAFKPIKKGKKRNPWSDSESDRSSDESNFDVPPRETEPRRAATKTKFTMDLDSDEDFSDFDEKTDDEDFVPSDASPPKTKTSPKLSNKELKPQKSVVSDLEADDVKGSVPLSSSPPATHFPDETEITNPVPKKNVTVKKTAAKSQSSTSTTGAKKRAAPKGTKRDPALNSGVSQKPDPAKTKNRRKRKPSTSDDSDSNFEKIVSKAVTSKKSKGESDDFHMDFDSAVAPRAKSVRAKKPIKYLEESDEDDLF

[2] = biological target: DNA topoisomerase 2-alpha (Homo sapiens) (UniProt P11388); experiment: Inhibition of human DNA topoisomerase 2
KB = experiment: Cytotoxicity against human KB cells assessed as reduction in cell number after 3 days; type: functional; details: 72 h, read-out: ID50 (the source's name)
[3] = biological target: DNA topoisomerase 2-alpha (Homo sapiens) (UniProt P11388); experiment: Inhibition of strand rejoining activity of human DNA topoisomerase 2 assessed as protein-DNA complex formation at 10 uM by cell-based assay; set-up: scale not given: the % may be the effect or the level left

SMILES | Activity [1] | ID50 [2] | IC50 (KB) | Activity [3]
CCOC(=O)c1ccc(N[C@@H]2c3cc4c(cc3[C@@H](C3=CC(=O)C(=O)C(OC)=C3)[C@H]3C(=O)OC[C@@H]32)OCO4)cc1 | 110% | 25 µM | 1.4 µM | 
COc1cc([C@@H]2c3cc4c(cc3[C@@H](Nc3cccc([N+](=O)[O-])c3)[C@H]3COC(=O)[C@H]23)OCO4)cc(O)c1O | 75% | 50 µM | 2 µM | 
COC(=O)c1ccc(N[C@@H]2c3cc4c(cc3[C@@H](C3=CC(=O)C(=O)C(OC)=C3)[C@H]3C(=O)OC[C@@H]32)OCO4)cc1O | 47% | 100 µM | 1.9 µM | 
COC1=CC([C@@H]2c3cc4c(cc3[C@@H](Oc3ccc(F)cc3)[C@H]3COC(=O)[C@@H]32)OCO4)=CC(=O)C1=O | 30% | 100 µM | 0.9 µM | 
COc1cc([C@@H]2c3cc4c(cc3[C@@H](Nc3cc(F)cc(F)c3)[C@H]3COC(=O)[C@H]23)OCO4)cc(OC)c1O |  | 50 µM |  | 115%
COC1=CC([C@@H]2c3cc4c(cc3[C@@H](Nc3ccc(Cl)cc3)[C@H]3COC(=O)[C@@H]32)OCO4)=CC(=O)C1=O | 27% | 25 µM | > 4 µM | 
COC1=CC([C@@H]2c3cc4c(cc3[C@@H](Nc3cccc([N+](=O)[O-])c3)[C@H]3COC(=O)[C@@H]32)OCO4)=CC(=O)C1=O | 33% | 50 µM | > 4 µM | 
COc1cc([C@@H]2c3cc4c(cc3[C@@H](O)[C@H]3COC(=O)[C@H]23)OCO4)cc(O)c1O | 50% | 100 µM |  | 
COc1cc([C@@H]2c3cc4c(cc3[C@@H](Nc3ccccc3)[C@H]3COC(=O)[C@H]23)OCO4)cc(O)c1O | 128% | 25 µM | 1.8 µM | 
CCOC(=O)c1ccc(N[C@@H]2c3cc4c(cc3[C@@H](c3cc(OC)c(O)c(OC)c3)[C@H]3C(=O)OC[C@@H]32)OCO4)cc1 |  | 5 µM | 0.84 µM | 207%
COc1cc([C@@H]2c3cc4c(cc3[C@@H](Nc3ccccc3F)[C@H]3COC(=O)[C@H]23)OCO4)cc(OC)c1O |  |  |  | 121%
COC1=CC([C@@H]2c3cc4c(cc3[C@@H](Nc3cccc(F)c3)[C@H]3COC(=O)[C@@H]32)OCO4)=CC(=O)C1=O | 37% | 100 µM | 1.6 µM | 
COC(=O)c1cccc(N[C@@H]2c3cc4c(cc3[C@@H](c3cc(OC)c(O)c(OC)c3)[C@H]3C(=O)OC[C@@H]32)OCO4)c1 |  | 50 µM | 2.7 µM | 129%
COc1cc([C@@H]2c3cc4c(cc3[C@H](O)[C@H]3COC(=O)[C@H]23)OCO4)cc(O)c1O | 8% | 50 µM |  | 
COC1=CC([C@@H]2c3cc4c(cc3[C@@H](Nc3ccc(C(C)=O)cc3)[C@H]3COC(=O)[C@@H]32)OCO4)=CC(=O)C1=O | 69% | 50 µM | 1.5 µM | 
COC1=CC([C@@H]2c3cc4c(cc3[C@@H](Nc3ccc(C(F)(F)F)cc3)[C@H]3COC(=O)[C@@H]32)OCO4)=CC(=O)C1=O | 51% | 25 µM | 6.5 µM | 
COc1cc([C@@H]2c3cc4c(cc3[C@@H](Nc3ccc([N+](=O)[O-])cc3)[C@H]3COC(=O)[C@H]23)OCO4)cc(O)c1O | 200% | 10 µM | 1.3 µM | 
COC1=CC([C@@H]2c3cc4c(cc3[C@@H](Nc3cc(C(F)(F)F)cc(C(F)(F)F)c3)[C@H]3COC(=O)[C@@H]32)OCO4)=CC(=O)C1=O | 4% | > 100 µM | 5.5 µM | 
COc1cc([C@@H]2c3cc4c(cc3[C@@H](Nc3ccc(F)cc3)[C@H]3COC(=O)[C@H]23)OCO4)cc(O)c1O | 117% | 10 µM | 1.5 µM | 
COc1cc([C@@H]2c3cc4c(cc3[C@@H](Nc3ccc(C(C)=O)cc3)[C@H]3COC(=O)[C@H]23)OCO4)cc(O)c1O | 147% | 25 µM | 1 µM | 
COc1cc([C@@H]2c3cc4c(cc3[C@@H](Nc3cc(C(F)(F)F)cc(C(F)(F)F)c3)[C@H]3COC(=O)[C@H]23)OCO4)cc(OC)c1O |  | > 100 µM | 3.4 µM | 21%
COc1cc([C@@H]2c3cc4c(cc3[C@@H](Nc3ccc([N+](=O)[O-])cc3)[C@H]3COC(=O)[C@H]23)OCO4)cc(OC)c1O |  | 10 µM | 0.5 µM | 323%
COc1cc([C@@H]2c3cc4c(cc3[C@@H](Nc3ccc(Cl)cc3)[C@H]3COC(=O)[C@H]23)OCO4)cc(O)c1O | 77% | > 50 µM | 2 µM | 
COC(=O)c1cccc(N[C@@H]2c3cc4c(cc3[C@@H](C3=CC(=O)C(=O)C(OC)=C3)[C@H]3C(=O)OC[C@@H]32)OCO4)c1 | 67% | 100 µM | 1.2 µM | 
COc1cc([C@@H]2c3cc4c(cc3[C@@H](Nc3ccc(Cl)cc3)[C@H]3COC(=O)[C@H]23)OCO4)cc(OC)c1O |  | 50 µM |  | 99%

SMILES | Activity [1] | ID50 [2] | IC50 (KB) | Activity [3]
COC1=CC([C@@H]2c3cc4c(cc3[C@@H](Nc3ccc([N+](=O)[O-])cc3)[C@H]3COC(=O)[C@@H]32)OCO4)=CC(=O)C1=O | 128% | 10 µM | 1.3 µM | 
COC1=CC([C@@H]2c3cc4c(cc3[C@@H](Nc3cc(F)cc(F)c3)[C@H]3COC(=O)[C@@H]32)OCO4)=CC(=O)C1=O | 57% | 50 µM | 2 µM | 
COC1=CC([C@@H]2c3cc4c(cc3[C@@H](Nc3ccccc3)[C@H]3COC(=O)[C@@H]32)OCO4)=CC(=O)C1=O | 32% | 25 µM | > 2 µM | 
COC1=CC([C@@H]2c3cc4c(cc3[C@@H](Nc3ccc(F)cc3)[C@H]3COC(=O)[C@@H]32)OCO4)=CC(=O)C1=O | 92% | 25 µM | 1.3 µM | 
COC1=CC([C@@H]2c3cc4c(cc3[C@@H](Nc3ccc(CC#N)cc3)[C@H]3COC(=O)[C@@H]32)OCO4)=CC(=O)C1=O | 41% | 25 µM | 2 µM | 
COC1=CC([C@@H]2c3cc4c(cc3[C@@H](Nc3cncc5ccccc35)[C@H]3COC(=O)[C@@H]32)OCO4)=CC(=O)C1=O | 95% | 100 µM | 1.5 µM | 
COc1cc([C@@H]2c3cc4c(cc3[C@@H](Nc3cccc([N+](=O)[O-])c3)[C@H]3COC(=O)[C@H]23)OCO4)cc(OC)c1O |  | 50 µM | 1 µM | 230%
COC1=CC([C@@H]2c3cc4c(cc3[C@@H](Nc3ccc(C#N)cc3)[C@H]3COC(=O)[C@@H]32)OCO4)=CC(=O)C1=O | 18% | 50 µM | > 2 µM | 
COC(=O)c1cccc(N[C@@H]2c3cc4c(cc3[C@@H](c3cc(O)c(O)c(OC)c3)[C@H]3C(=O)OC[C@@H]32)OCO4)c1 | 94% | 25 µM | 2.3 µM | 
COc1cc([C@@H]2c3cc4c(cc3[C@@H](Nc3ccc(F)cc3)[C@H]3COC(=O)[C@H]23)OCO4)cc(OC)c1O |  | 5 µM | 0.2 µM | 2.13%
COC1=CC([C@@H]2c3cc4c(cc3[C@@H](O)[C@H]3COC(=O)[C@@H]32)OCO4)=CC(=O)C1=O | 41% | < 5 µM | 2.8 µM | 
COC1=CC([C@@H]2c3cc4c(cc3[C@@H](Nc3ccccc3F)[C@H]3COC(=O)[C@@H]32)OCO4)=CC(=O)C1=O | 29% | 100 µM | 1.2 µM | 
COC1=CC([C@@H]2c3cc4c(cc3[C@@H](Nc3cccc(Br)c3)[C@H]3COC(=O)[C@@H]32)OCO4)=CC(=O)C1=O | 15% | 50 µM | 6.1 µM | 
COc1cc([C@@H]2c3cc4c(cc3[C@@H](Nc3ccc(C#N)cc3)[C@H]3COC(=O)[C@H]23)OCO4)cc(O)c1O | 146% | 25 µM | 1.8 µM | 
CCOC(=O)c1ccccc1N[C@@H]1c2cc3c(cc2[C@@H](C2=CC(=O)C(=O)C(OC)=C2)[C@H]2C(=O)OC[C@@H]21)OCO3 | 4% | 100 µM | 7 µM | 
COc1cc([C@@H]2c3cc4c(cc3[C@@H](Nc3cccc(Br)c3)[C@H]3COC(=O)[C@H]23)OCO4)cc(OC)c1O |  |  |  | 62%
COC1=CC([C@@H]2c3cc4c(cc3[C@@H](Nc3cc([N+](=O)[O-])cc([N+](=O)[O-])c3)[C@H]3COC(=O)[C@@H]32)OCO4)=CC(=O)C1=O | 32% | 50 µM | 1.8 µM | 
COc1cc([C@@H]2c3cc4c(cc3[C@H](O)[C@H]3COC(=O)[C@H]23)OCO4)cc(OC)c1O |  | > 100 µM |  | 1.1%
COc1cc([C@@H]2c3cc4c(cc3[C@@H](Nc3ccc(C#N)cc3)[C@H]3COC(=O)[C@H]23)OCO4)cc(OC)c1O |  |  | 0.6 µM | 211%
COc1cc([C@@H]2c3cc4c(cc3[C@@H](Nc3ccc(CC#N)cc3)[C@H]3COC(=O)[C@H]23)OCO4)cc(O)c1O | 109% | 25 µM | 1.2 µM | 
COc1cc([C@@H]2c3cc4c(cc3[C@@H](O)[C@H]3COC(=O)[C@H]23)OCO4)cc(OC)c1O |  | > 100 µM |  | 0%
COC1=CC([C@@H]2c3cc4c(cc3[C@H](O)[C@H]3COC(=O)[C@@H]32)OCO4)=CC(=O)C1=O | 4% | 10 µM | 1.9 µM | 
COc1cc([C@@H]2c3cc4c(cc3[C@@H](Nc3cccc(F)c3)[C@H]3COC(=O)[C@H]23)OCO4)cc(OC)c1O |  | 50 µM |  | 158%
COC1=CC([C@@H]2c3cc4c(cc3C(=O)[C@H]3COC(=O)[C@@H]32)OCO4)=CC(=O)C1=O | 56% | 5 µM | > 4 µM | 
